The target of one assay is T1, human GCGR (Homo sapiens, UniProt P47871).
T1 construct: expressed in transfected cells; kept under Blasticidin and Hygromycin selection
Nature of the assay: cAMP activity assay, cells expressing human GCGR. Conditions: for EC50: cAMP production, cells expressing human GCGR, assay buffer with or without 20% human serum (not stated which), read-out: GCGR EC50 human; for hGCGR/hGLP1R (hTone): ratio of human GCGR EC50 to human GLP1R EC50. It counts as cell-based. The procedure, abridged:
(§1)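 Peptides as 10-point titrations from DMSO tested on cells expressing human GLP1R or GCGR. cAMP measured by luminescent kit after overnight room-temperature incubation in the dark. EC50 from four-parameter logistic fit; native GLP-1 and glucagon as controls.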

For another assay, the target named is T2, human GLP1R (Homo sapiens, UniProt P43220).
T2 construct: expressed in transfected cells; kept under Blasticidin and Hygromycin selection
T2 sequence (P43220 24-463): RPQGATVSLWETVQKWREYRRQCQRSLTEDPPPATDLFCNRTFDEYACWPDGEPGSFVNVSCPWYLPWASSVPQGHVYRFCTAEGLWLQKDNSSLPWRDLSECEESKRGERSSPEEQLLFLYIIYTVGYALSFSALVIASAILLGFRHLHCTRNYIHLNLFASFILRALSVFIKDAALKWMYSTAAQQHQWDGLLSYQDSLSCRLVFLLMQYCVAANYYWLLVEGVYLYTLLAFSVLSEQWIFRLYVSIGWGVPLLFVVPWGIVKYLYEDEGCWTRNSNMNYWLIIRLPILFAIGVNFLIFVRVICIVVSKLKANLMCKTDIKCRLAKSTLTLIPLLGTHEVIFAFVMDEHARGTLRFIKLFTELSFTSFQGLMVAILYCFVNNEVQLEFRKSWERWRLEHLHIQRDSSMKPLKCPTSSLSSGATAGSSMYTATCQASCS
Nature of the assay: cAMP activity assay, cells expressing human GLP1R. It counts as cell-based. The conditions noted are these: cAMP production, assay buffer with or without 20% human serum (not stated which). The procedure, abridged: as §1

The values that follow come from US11492385B2, “Long-acting co-agonists of the glucagon and GLP-1 receptors” (Merck Sharp & Dohme Corp., priority 2015, dated 2022).

Starred links: 1 amine or outer side, 2 acyl side, 3 side chain; linkers in the order of their positions; H or OH if unused. Non-standard residues stand in square brackets, D forms with d. Residues, ends and D or L forms follow the SMILES beside them. Groups on a side chain read outwards from the residue. *: point of attachment. Phe(4-CH2NH2) = NCc1ccc(C[C@H](N)C(=O)O)cc1; C19 diacid = O=C(O)CCCCCCCCCCCCCCCCCC(=O)*; C18 diacid = O=C(O)CCCCCCCCCCCCCCCCC(=O)*; C16 diacid = O=C(O)CCCCCCCCCCCCCCC(=O)*; γGlu = O=C(O)[C@H](CCC(=O)[*:2])N[*:1]; X1 = O=C([C@H]1CCC[C@@H]1N[*:1])[*:2]; Met(O2) = CS(=O)(=O)CC[C@H](N)C(=O)O; αMeF = C[C@](N)(Cc1ccccc1)C(=O)O; AEEA = NCCOCCOCC(=O)O; Aib = CC(C)(N)C(=O)O

T1 sequence (P47871 26-477): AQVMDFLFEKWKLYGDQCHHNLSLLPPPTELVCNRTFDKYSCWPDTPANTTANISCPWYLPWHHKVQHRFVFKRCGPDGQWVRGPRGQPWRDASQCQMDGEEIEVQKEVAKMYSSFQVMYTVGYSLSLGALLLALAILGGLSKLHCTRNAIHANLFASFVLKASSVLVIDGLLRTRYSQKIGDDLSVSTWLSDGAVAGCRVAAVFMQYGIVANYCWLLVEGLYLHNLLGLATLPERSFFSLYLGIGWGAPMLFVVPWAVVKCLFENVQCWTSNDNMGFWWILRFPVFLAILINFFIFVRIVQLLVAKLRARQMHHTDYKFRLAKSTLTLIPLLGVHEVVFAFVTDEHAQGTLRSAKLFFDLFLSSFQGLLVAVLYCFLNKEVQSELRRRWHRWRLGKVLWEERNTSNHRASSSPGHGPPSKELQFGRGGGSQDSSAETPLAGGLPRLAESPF

As for `CC(C)C[C@H](NC(=O)[C@H](Cc1ccc(O)cc1)NC(=O)[C@H](CCCCN)NC(=O)[C@H](CO)NC(=O)[C@H](Cc1ccc(O)cc1)NC(=O)[C@H](CC(=O)O)NC(=O)[C@H](CO)NC(=O)[C@@H](NC(=O)[C@H](Cc1ccccc1)NC(=O)[C@@H](NC(=O)CNC(=O)[C@H](CCC(N)=O)NC(=O)C(C)(C)NC(=O)[C@@H](N)Cc1c[nH]cn1)[C@@H](C)O)[C@@H](C)O)C(=O)N[C@@H](CC(=O)O)C(=O)N[C@@H](C)C(=O)N[C@@H](CCCCN)C(=O)N[C@@H](C)C(=O)N[C@@H](C)C(=O)N[C@@H](CCCCNC(=O)COCCOCCNC(=O)COCCOCCNC(=O)CC[C@H](NC(=O)CCCCCCCCCCCCCCCCC(=O)O)C(=O)O)C(=O)N[C@@H](CC(=O)O)C(=O)N[C@@H](Cc1ccccc1)C(=O)N[C@H](C(=O)N[C@@H](CCC(N)=O)C(=O)N[C@@H](Cc1c[nH]c2ccccc12)C(=O)N[C@@H](CC(C)C)C(=O)N[C@@H](CCS(C)(=O)=O)C(=O)N[C@@H](CC(=O)O)C(=O)N[C@H](C(N)=O)[C@@H](C)O)C(C)C` [compound 70] (H-H[Aib]QGTFTSDYSKYLDAKAAK([AEEA-AEEA-γGlu-C18 diacid])DFVQWL[Met(O2)]DT-NH2; N-terminus assumed), on human GCGR, the EC50 is 1100 pM and the “hGCGR/hGLP1R (hTone)” value was found to be 2.3. The molecule further returned an EC50 at human GLP1R of 500 pM.
Taken in the same sequence, the figures for `CC(C)C[C@H](NC(=O)[C@H](Cc1ccc(O)cc1)NC(=O)[C@H](CCCCN)NC(=O)[C@H](CO)NC(=O)[C@H](Cc1ccc(O)cc1)NC(=O)[C@H](CC(=O)O)NC(=O)[C@H](CO)NC(=O)[C@@H](NC(=O)[C@H](Cc1ccccc1)NC(=O)[C@@H](NC(=O)CNC(=O)[C@H](CCC(N)=O)NC(=O)C(C)(C)NC(=O)[C@@H](N)Cc1c[nH]cn1)[C@@H](C)O)[C@@H](C)O)C(=O)N[C@@H](CC(=O)O)C(=O)N[C@@H](C)C(=O)N[C@@H](CCCNC(=N)N)C(=O)N[C@@H](C)C(=O)N[C@@H](C)C(=O)N[C@@H](CCC(N)=O)C(=O)N[C@@H](CCCCNC(=O)COCCOCCNC(=O)COCCOCCNC(=O)CC[C@H](NC(=O)CCCCCCCCCCCCCCCCCC(=O)O)C(=O)O)C(=O)N[C@@H](Cc1ccccc1)C(=O)N[C@H](C(=O)N[C@@H](CCC(N)=O)C(=O)N[C@@H](Cc1c[nH]c2ccccc12)C(=O)N[C@@H](CC(C)C)C(=O)N[C@@H](CCS(C)(=O)=O)C(=O)N[C@@H](CC(=O)O)C(=O)N[C@H](C(N)=O)[C@@H](C)O)C(C)C` [compound 46] (H-H[Aib]QGTFTSDYSKYLDARAAQK([AEEA-AEEA-γGlu-C19 diacid])FVQWL[Met(O2)]DT-NH2; N-terminus assumed) were 500 pM, 1.83 and 280 pM.
In the same order, the values of `CC(C)C[C@H](NC(=O)[C@H](Cc1ccc(O)cc1)NC(=O)[C@H](CCCCN)NC(=O)[C@H](CO)NC(=O)[C@H](Cc1ccc(O)cc1)NC(=O)[C@H](CC(=O)O)NC(=O)[C@H](CO)NC(=O)[C@@H](NC(=O)[C@H](Cc1ccccc1)NC(=O)[C@@H](NC(=O)CNC(=O)[C@H](CCC(N)=O)NC(=O)C(C)(C)NC(=O)[C@@H](N)Cc1c[nH]cn1)[C@@H](C)O)[C@@H](C)O)C(=O)N[C@@H](CC(=O)O)C(=O)N[C@@H](CCC(=O)O)C(=O)N[C@@H](CCCNC(=N)N)C(=O)N[C@@H](C)C(=O)N[C@@H](C)C(=O)N[C@@H](CCC(N)=O)C(=O)N[C@@H](Cc1ccc(CNC(=O)COCCOCCNC(=O)COCCOCCNC(=O)CC[C@H](NC(=O)CCCCCCCCCCCCCCC(=O)O)C(=O)O)cc1)C(=O)N[C@@H](Cc1ccccc1)C(=O)N[C@H](C(=O)N[C@@H](CCC(N)=O)C(=O)N[C@@H](Cc1c[nH]c2ccccc12)C(=O)N[C@@H](CC(C)C)C(=O)N[C@@H](CC(C)C)C(=O)N[C@@H](CCCCN)C(=O)N[C@H](C(N)=O)[C@@H](C)O)C(C)C` [compound 27] (H-H[Aib]QGTFTSDYSKYLDERAAQ[Phe(4-CH2NH2)]([AEEA-AEEA-γGlu-C16 diacid])FVQWLLKT-NH2) are 440 pM, 9.24 and 50 pM.
Taken in the same sequence, the figures for `CC(C)C[C@H](NC(=O)[C@H](Cc1ccc(O)cc1)NC(=O)[C@H](CCCCN)NC(=O)[C@H](CO)NC(=O)[C@H](CCCCNC(=O)CC[C@H](NC(=O)CC[C@H](NC(=O)CCCCCCCCCCCCCCC(=O)O)C(=O)O)C(=O)O)NC(=O)[C@H](CC(=O)O)NC(=O)[C@H](CO)NC(=O)[C@@H](NC(=O)[C@H](Cc1ccccc1)NC(=O)[C@@H](NC(=O)CNC(=O)[C@H](CCC(N)=O)NC(=O)[C@@H](CO)NC(=O)[C@@H](N)Cc1c[nH]cn1)[C@@H](C)O)[C@@H](C)O)C(=O)N[C@@H](CC(=O)O)C(=O)N[C@@H](CCC(=O)O)C(=O)N[C@@H](CCCNC(=N)N)C(=O)N[C@@H](C)C(=O)N[C@@H](C)C(=O)N[C@@H](CCC(N)=O)C(=O)N[C@@H](CC(=O)O)C(=O)N[C@@H](Cc1ccccc1)C(=O)N[C@H](C(=O)N[C@@H](CCC(N)=O)C(=O)N[C@@H](Cc1c[nH]c2ccccc12)C(=O)N[C@@H](CC(C)C)C(=O)N[C@@H](CC(C)C)C(=O)N[C@@H](CCCCN)C(=O)N[C@H](C(N)=O)[C@@H](C)O)C(C)C` [compound 9] were 1980 pM, 3.22 and 670 pM.
For the molecule `CC(C)C[C@H](NC(=O)[C@H](Cc1ccc(O)cc1)NC(=O)[C@H](CCCCN)NC(=O)[C@H](CO)NC(=O)[C@H](Cc1ccc(O)cc1)NC(=O)[C@H](CC(=O)O)NC(=O)[C@H](CO)NC(=O)[C@@H](NC(=O)[C@H](Cc1ccccc1)NC(=O)[C@@H](NC(=O)CNC(=O)[C@H](CCC(N)=O)NC(=O)C(C)(C)NC(=O)[C@@H](N)Cc1c[nH]cn1)[C@@H](C)O)[C@@H](C)O)C(=O)N[C@@H](CC(=O)O)C(=O)N[C@@H](C)C(=O)N[C@@H](CCCNC(=N)N)C(=O)N[C@@H](C)C(=O)N[C@@H](C)C(=O)N[C@@H](CCCCNC(=O)COCCOCCNC(=O)COCCOCCNC(=O)CC[C@H](NC(=O)CCCCCCCCCCCCCCC(=O)O)C(=O)O)C(=O)N[C@@H](CC(=O)O)C(=O)N[C@@](C)(Cc1ccccc1)C(=O)N[C@H](C(=O)N[C@@H](CCC(N)=O)C(=O)N[C@@H](Cc1c[nH]c2ccccc12)C(=O)N[C@@H](CC(C)C)C(=O)N[C@@H](CCS(C)(=O)=O)C(=O)N[C@@H](CC(=O)O)C(=O)N[C@H](C(N)=O)[C@@H](C)O)C(C)C` [compound 39] (H-H[Aib]QGTFTSDYSKYLDARAAK([AEEA-AEEA-γGlu-C16 diacid])D[αMeF]VQWL[Met(O2)]DT-NH2), on human GCGR, the EC50 was determined as 330 pM and the “hGCGR/hGLP1R (hTone)” value is listed as 2.93. Besides, the 50% effective concentration (EC50) on human GLP1R came to 110 pM.
Taken in the same sequence, the figures for `CC(C)C[C@H](NC(=O)[C@H](Cc1ccc(O)cc1)NC(=O)[C@H]1CCC[C@@H]1NC(=O)[C@H](CO)NC(=O)[C@H](Cc1ccc(O)cc1)NC(=O)[C@H](CC(=O)O)NC(=O)[C@H](CO)NC(=O)[C@@H](NC(=O)[C@H](Cc1ccccc1)NC(=O)[C@@H](NC(=O)CNC(=O)[C@H](CCC(N)=O)NC(=O)C(C)(C)NC(=O)[C@@H](N)Cc1c[nH]cn1)[C@@H](C)O)[C@@H](C)O)C(=O)N[C@@H](CC(=O)O)C(=O)NC(C)(C)C(=O)N[C@@H](CCCNC(=N)N)C(=O)N[C@@H](C)C(=O)N[C@@H](C)C(=O)N[C@@H](CCCCNC(=O)COCCOCCNC(=O)COCCOCCNC(=O)CC[C@H](NC(=O)CCCCCCCCCCCCCCC(=O)O)C(=O)O)C(=O)N[C@@H](CC(=O)O)C(=O)N[C@@H](Cc1ccccc1)C(=O)N[C@H](C(=O)N[C@H]1CCC[C@@H]1C(=O)N[C@@H](Cc1c[nH]c2ccccc12)C(=O)N[C@@H](CC(C)C)C(=O)N[C@@H](CCS(C)(=O)=O)C(=O)N[C@@H](CC(=O)O)C(=O)N[C@H](C(N)=O)[C@@H](C)O)C(C)C` [compound 36] (H-H[Aib]QGTFTSDYS[X1]YLD[Aib]RAAK([AEEA-AEEA-γGlu-C16 diacid])DFV[X1]WL[Met(O2)]DT-NH2; N-terminus assumed) were 230 pM, 0.65 and 360 pM.
Taken in the same sequence, the figures for `CC(C)C[C@H](NC(=O)[C@H](Cc1ccc(O)cc1)NC(=O)[C@H](CCCCN)NC(=O)[C@H](CO)NC(=O)[C@H](Cc1ccc(O)cc1)NC(=O)[C@H](CC(=O)O)NC(=O)[C@H](CO)NC(=O)[C@@H](NC(=O)[C@H](Cc1ccccc1)NC(=O)[C@@H](NC(=O)CNC(=O)[C@H](CCC(N)=O)NC(=O)[C@@H](CO)NC(=O)[C@@H](N)Cc1c[nH]cn1)[C@@H](C)O)[C@@H](C)O)C(=O)N[C@@H](CC(=O)O)C(=O)N[C@@H](C)C(=O)N[C@@H](CCCNC(=N)N)C(=O)N[C@@H](C)C(=O)N[C@@H](C)C(=O)N[C@@H](CCCCNC(=O)COCCOCCNC(=O)COCCOCCNC(=O)CC[C@H](NC(=O)CCCCCCCCCCCCCCC(=O)O)C(=O)O)C(=O)N[C@@H](CC(=O)O)C(=O)N[C@@H](Cc1ccccc1)C(=O)N[C@H](C(=O)N[C@@H](CCC(N)=O)C(=O)N[C@@H](Cc1c[nH]c2ccccc12)C(=O)N[C@@H](CC(C)C)C(=O)N[C@@H](CC(C)C)C(=O)N[C@@H](CC(=O)O)C(=O)N[C@H](C(N)=O)[C@@H](C)O)C(C)C` [compound 2] (H-H[dS]QGTFTSDYSKYLDARAAK([AEEA-AEEA-γGlu-C16 diacid])DFVQWLLDT-NH2; N-terminus assumed) were 30 pM, 0.11 and 274 pM.

One may read the EC50 as the midpoint of the concentration-response curve.
